From US9238639B2, “Aromatic ring compound” (TAKEDA PHARMACEUTICAL COMPANY LIMITED, priority 2012, dated 2016)

These compounds were tested against T1, human GOAT (Homo sapiens, UniProt Q96T53) (assay: GOAT enzyme activity measurement by HTRF method (human GOAT-expressing microsome fraction)). Settings: 10 μM compound; human GOAT-expressing Sf9 microsome fraction; octanoyl-CoA and Ghrelin-biotin substrates; 0% control without compound, 100% control without enzyme.
T1 construct: made in house; host or cells: Sf9 insect cells (BacToBac baculovirus, pFastBac1 vector); microsome fraction
T1 sequence (Q96T53 1-435): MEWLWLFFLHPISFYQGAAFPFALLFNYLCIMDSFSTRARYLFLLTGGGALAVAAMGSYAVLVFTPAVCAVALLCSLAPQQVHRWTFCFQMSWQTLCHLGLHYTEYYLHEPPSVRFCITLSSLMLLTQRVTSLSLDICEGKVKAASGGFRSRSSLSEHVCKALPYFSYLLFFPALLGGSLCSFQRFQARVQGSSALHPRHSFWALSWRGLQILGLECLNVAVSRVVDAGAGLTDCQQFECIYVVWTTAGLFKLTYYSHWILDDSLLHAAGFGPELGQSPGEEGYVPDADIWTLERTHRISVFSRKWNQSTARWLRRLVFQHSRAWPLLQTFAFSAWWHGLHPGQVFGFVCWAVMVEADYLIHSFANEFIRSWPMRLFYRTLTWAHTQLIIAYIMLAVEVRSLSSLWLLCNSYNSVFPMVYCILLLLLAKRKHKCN
Format: biochemical
Experimental: Human GOAT (Accession NO: EU518495) cDNA was amplified by PCR including reaction of (1) 98° C., 1 min, (2) 35 repeats of 98° C., 10 sec·65° C., 15 sec·72° C., 80 sec, and (3) 72° C., 5 min, using human stomach cDNA library (Takara Bio) as a template and Pyrobest DNA Polymerase (Takara Bio). The amplified fragment was treated with restriction enzymes, inserted into Stu I/Not I sites of pFastBacl (Invitrogen) by using Ligation High (TOYOBO), and transfected into ECOS JM109 (Nippon Gene) to construct pFB/hGOAT.
Production of Baculovirus and Preparation of Insect Cell Microsome Fraction
For preparation of baculovirus from pFB/hGOAT, BacToBac baculovirus expression system (Invitrogen) was used. The virus titer was measured by Real-Time PCR using SYBR Green (Takara Bio). Sf9 cells were infected with the obtained baculovirus at Multiplicity of Infection (MOI)=0.2, and cultured for 70 hr. The Sf9 cells were recovered, suspended in a suspension buffer (TBS (0.3 M NaCl), 1 mM DTT, 1 mM EDTA, Complete (Roche) (1 tablet/50 mL)), and the cells were disrupted twice on ice at 20000 rpm, 30 sec using a polytron homogenizer. The cell disruption solution was centrifuged at 1000 rpm for 10 min at 4° C., the supernatant was further ultracentrifuged at 40000 rpm for 30 min at 4° C. and the precipitate was recovered. The obtained precipitate was suspended in the suspension buffer used above to give a human GOAT-expressing microsome fraction. The protein level was measured using BCA Protein assay Reagent (PIERCE).
Enzyme Activity Measurement by HTRF Method
A compound solution (2 μL) diluted with an assay buffer containing 50 mM Tris-HCl (pH 7.5), 0.5% TWEEN20, and Complete to 15% DMSO and 90 μg/mL human GOAT-expressing microsome fraction (2 μL) were incubated at room temperature for 20 min, after which a substrate mixed solution (2 μL) containing 30 μM octanoyl-CoA (CHEM-IMPLEX) and 3 μM Ghrelin-biotin ([…]epsilon aminocaproic acid-biotin (Greiner Coutom synthesis)) was added to 384 white small volume plate (Greiner). After reaction for 20 min, 2 μL of citrate buffer (pH3) (mixed solution of 0.1 M citric acid (39.8 mL) and 0.2 M Na2HPO4 (10.2 mL)), 2 μL of 25 nM anti-active ghrelin antibody (produced in mouse), 5 μL of Eu(K)-Anti Mouse IgG Pab (Cis Bio) 100-fold diluted with HTRF detection buffer (Cis Bio) and 5 μL of streptavidin-Xlent (Cis Bio) 66.6-fold diluted with HTRF detection buffer (Cis Bio) were added. After incubation at room temperature for 1 hr or longer, the fluorescence values at 620 nm and 665 nm were measured by Envision (PerkinElmer). The data was calculated [(665 nm signal/620 nm signal)×10^4], and the inhibitory activity against human GOAT was shown by the data where 0% control was without compound, and 100% control was without enzyme.

Compound | inhibition at 10 µM
CCOC(=O)Cc1csc2cc(OCc3ccc(Cl)cc3Cl)ccc12 [Example 1, Ethyl(6-((2,4-dichlorobenzyl)oxy)-1-benzothiophen-3-yl)acetate] | 69%
O=C(O)Cc1csc2cc(OCc3ccc(Cl)cc3Cl)ccc12 [Example 2, (6-((2,4-Dichlorobenzyl)oxy)-1-benzothiophen-3-yl)acetic acid] | 99.2%
CCOC(=O)Cc1csc2cc(OCc3ccc(C)nc3C)ccc12 [Example 3, Ethyl(6-((2,6-dimethylpyridin-3-yl)methoxy)-1-benzothiophen-3-yl)acetate] | 92.8%
Cc1ccc(COc2ccc3c(CC(=O)O)csc3c2)c(C)n1 [Example 4, (6-((2,6-Dimethylpyridin-3-yl)methoxy)-1-benzothiophen-3-yl)acetic acid] | 99%
COC(=O)Cc1csc2cc(OCc3ccc(Cl)cc3Cl)cc(C)c12 [Example 5, Methyl(6-((2,4-dichlorobenzyl)oxy)-4-methyl-1-benzothiophen-3-yl)acetate] | 84.4%
Cc1cc(OCc2ccc(Cl)cc2Cl)cc2scc(CC(=O)O)c12 [Example 6, (6-((2,4-Dichlorobenzyl)oxy)-4-methyl-1-benzothiophen-3-yl)acetic acid] | 103%
COC(=O)Cc1csc2cc(OCc3cc(C)nn3C)cc(C)c12 [Example 7, Methyl(6-((1,3-dimethyl-1H-pyrazol-5-yl)methoxy)-4-methyl-1-benzothiophen-3-yl)acetate] | 94.7%
Cc1cc(COc2cc(C)c3c(CC(=O)O)csc3c2)n(C)n1 [Example 8, (6-((1,3-Dimethyl-1H-pyrazol-5-yl)methoxy)-4-methyl-1-benzothiophen-3-yl)acetic acid] | 95.6%
COC(=O)Cc1csc2cc(OCc3ccc(C(F)(F)F)nc3C)cc(C)c12 [Example 9, Methyl(4-methyl-6-((2-methyl-6-(trifluoromethyl)pyridin-3-yl)methoxy)-1-benzothiophen-3-yl)acetate] | 93.8%
Cc1nc(C(F)(F)F)ccc1COc1cc(C)c2c(CC(=O)O)csc2c1 [Example 10, (4-Methyl-6-((2-methyl-6-(trifluoromethyl)pyridin-3-yl)methoxy)-1-benzothiophen-3-yl)acetic acid] | 99.2%
COC(=O)Cc1csc2cc(OCc3cc(C(F)(F)F)nn3C)cc(C)c12 [Example 11, Methyl(4-methyl-6-((1-methyl-3-(trifluoromethyl)-1H-pyrazol-5-yl)methoxy)-1-benzothiophen-3-yl)acetate] | 95.2%
Cc1cc(OCc2cc(C(F)(F)F)nn2C)cc2scc(CC(=O)O)c12 [Example 12, (4-Methyl-6-((1-methyl-3-(trifluoromethyl)-1H-pyrazol-5-yl)methoxy)-1-benzothiophen-3-yl)acetic acid] | 104%
COC(=O)Cc1csc2cc(OCc3ccc(C)nc3C)cc(Cl)c12 [Example 13, Methyl(4-chloro-6-((2,6-dimethylpyridin-3-yl)methoxy)-1-benzothiophen-3-yl)acetate] | 96.5%
Cc1ccc(COc2cc(Cl)c3c(CC(=O)O)csc3c2)c(C)n1 [Example 14, (4-Chloro-6-((2,6-dimethylpyridin-3-yl)methoxy)-1-benzothiophen-3-yl)acetic acid] | 107%
COC(=O)Cc1csc2cc(OCc3ccc(C(F)(F)F)nc3C)cc(Cl)c12 [Example 15, Methyl(4-chloro-6-((2-methyl-6-(trifluoromethyl)pyridin-3-yl)methoxy)-1-benzothiophen-3-yl)acetate] | 91.6%
Cc1nc(C(F)(F)F)ccc1COc1cc(Cl)c2c(CC(=O)O)csc2c1 [Example 16, (4-Chloro-6-((2-methyl-6-(trifluoromethyl)pyridin-3-yl)methoxy)-1-benzothiophen-3-yl)acetic acid] | 101%
CCOC(=O)Cc1csc2cc(OCc3cc(C(F)(F)F)nn3C)ccc12 [Example 17, Ethyl(6-((1-methyl-3-(trifluoromethyl)-1H-pyrazol-5-yl)methoxy)-1-benzothiophen-3-yl)acetate] | 88.9%
